In patent EP0155244A2, “1-Ethyl-6-fluoro-7-(1H-pirrol-1-yl)-1,4-dihydro-4-oxoquinoline-3-carboxylic acid: preparation and antimicrobial activities” (priority 1985, dated 1985):
Values after ≈ are worked out from the molar mass of the structure shown. Read-outs that look alike come from different tables or passages of the source.

Legend:
Gram-positive bacteria = assay: In vitro antibacterial activity, summary for Gram-positive bacteria; type: cell-based, Staphylococcus and Streptococcus
Description: (§1) Derivatives (1) and (9) were tested for the in vitro antibacterial activities against Gram-positive and Gram-negative bacteria.Nalidixic acid,pipemidic acid,- piromidic acid and enoxacin were used as positive controls for antibacterial activities.
(§2) Minimum inhibitory concentrations (M.I.C.s) were determined using the serial twolfold dilution method; lectures were performed after incubation at 37° for 18 hours.
(§3) For the experiments the substances were dissolved in NaOH 0.1 N(10 mg/ml);further dilutions in the test medium furnished the required concentrations, generally in the range from 0. 05µg/ml to 100 µg/ml.
(§4) The cultures were obtained on B.H.I. (B.B.L.) after 18 hours incubation at 37°.Tests were carried out using Mueller-Hinton agar (B.B.L.) and inocula were 10^4 bacteria.
(§5) Media M.I.C. values nX (c at least 200 max µg/ml) were calculated by the equation [formula] where si is the number of sensitive strains at the given concentration ci and st is the whole number of the sensitive strains.
(§6) Strains with M.I.C.>200µg/ml are regarded as resistant (R) and are expressed in percentage (%) by the equation : [formula] where N is the whole number of tested strains and N is t s the number of sensitive strains.
(§7) The following species of bacteria freshly isolated from various clinical specimens were tested: 16 strains of […], 10 strains of Staphylococcus spp, 15 strains of Streptococcus ovalis,3 strains of Streptococcus spp, 18 strains of Klebsiella pneumoniae,20 strains of Escherichia coli,ll strains of Salmonella spp (3 S.typhi,l S.paratyphi A,S.paratyphi B, 4 S enteritidis, 1 S.wien and S.infantis,42 strains of Proteus spp (28 P.mirabilis, 8 P.vulgaris,3 P.rettgeri,2 P.morganii and 1 Providencia ) and 8 strains of Pseudomonas aeruginosa.

Enterobacteriaceae = assay: In vitro antibacterial activity, summary for Enterobacteriaceae; type: cell-based
Description: as §1, §2, §3, §4, §5
Strains with M.I.C.>200µg/ml are regarded as resistant (R) and are expressed in percentage (%) by the equation : [formula] where N is the whole number of tested strains and N is t s the number of sensitive strains. […]

Salmonella spp = assay: In vitro antibacterial activity, M.I.C. by serial twofold dilution method on Mueller-Hinton agar; type: cell-based; conditions: 11 strains, pH 7.2, reading 18 h after incubation at 37°C
Description: as §1, §2, §3, §4, §5, §6, §7

Klebsiella pneumoniae = assay: as above; type: cell-based; conditions: 18 strains, pH 7.2, reading 18 h after incubation at 37°C
Description: as §1, §2, §3, §4, §5, §6, §7

Staphylococcus spp = assay: as above; type: cell-based; conditions: 10 strains, pH 7.2, reading 18 h after incubation at 37°C
Description: as §1, §2, §3, §4, §5, §6, §7

Staphylococcus pyogenes = assay: as above; type: cell-based; conditions: 16 strains, pH 7.2, reading 18 h after incubation at 37°C; for MIC: Staphylococcus aureus
Description: as §1, §2, §3, §4, §5, §6, §7

Proteus spp = assay: as above; type: cell-based
Description: as §1, §2, §3, §4, §5, §6, §7

Pseudomonas aeruginosa = assay: as above; type: cell-based; conditions: for R% = percentage of resistant strains / MIC: Pseudomonas aeruginosa, 8 strains, pH 7.2, reading 18 h after incubation at 37°C
Description: as §1, §2, §3, §4, §5, §6, §7

Escherichia coli = assay: as above; type: cell-based; conditions: E.Coli, 20 strains, pH 7.2, reading 18 h after incubation at 37°C; for MIC: Escherichia coli
Description: as §1, §2, §3, §4, §5, §6, §7

Streptococcus spp = assay: as above; type: cell-based; conditions: 3 strains, pH 7.2, reading 18 h after incubation at 37°C
Description: as §1, §2, §3, §4, §5, §6, §7

Streptococcus ovalis = assay: as above; type: cell-based; conditions: 15 strains, pH 7.2, reading 18 h after incubation at 37°C
Description: as §1, §2, §3, §4, §5, §6, §7

[1] = read-out: nX̄ = MIC mean values of sensitive strains
[2] = Proteus spp, 42 strains, pH 7.2, reading 18 h after incubation at 37°C
[3] = Proteus spp, 42 strains, pH 7.2, reading 18 h after incubation at 37°C, read-out: nX̄ = MIC mean values of sensitive strains

| Structure (SMILES) | R% (resistant strains) (Gram-positive bacteria) | MIC (Salmonella spp; [1]) | MIC (Salmonella spp; read-out: range (MIC)) | MIC (Klebsiella pneumoniae; [1]) | MIC (Klebsiella pneumoniae; read-out: range (MIC)) | MIC (Staphylococcus spp; [1]) | MIC (Staphylococcus spp; read-out: range (MIC)) | MIC (Staphylococcus pyogenes; [1]) | MIC (Staphylococcus pyogenes; read-out: range (MIC)) | R% = percentage of resistant strains (Proteus spp; [2]) | MIC (Proteus spp; [3]) | R% = percentage of resistant strains (Pseudomonas aeruginosa) | MIC (Pseudomonas aeruginosa; [1]) | MIC (Escherichia coli; [1]) | MIC (Streptococcus spp; [1]) | MIC (Streptococcus spp; read-out: range (MIC)) | MIC (Streptococcus ovalis; [1]) | MIC (Streptococcus ovalis; read-out: range (MIC)) | R% = percentage of resistant strains (Escherichia coli) | R% = percentage of resistant strains (Salmonella spp) | also measured |
| --- | --- | --- | --- | --- | --- | --- | --- | --- | --- | --- | --- | --- | --- | --- | --- | --- | --- | --- | --- | --- | --- |
| CCn1cc(C(=O)O)c(=O)c2cc(F)c(-n3cccc3)cc21 [Acid (1), l-Ethyl-6-fluoro-l,4-dihydro-4-oxo-7-(lH-pyrrol-l-yl)quinoline-3-carboxylic acid] | 0% | 1.3 µg/mL (≈ 4.33 µM) | 0.1 to 3.12 µg/mL (≈ 0.333 to 10.4 µM) | 3.4 µg/mL (≈ 11.3 µM) | 0.8 to 25 µg/mL (≈ 2.66 to 83.3 µM) | 1.26 µg/mL (≈ 4.2 µM) | 0.1 to 3.12 µg/mL (≈ 0.333 to 10.4 µM) | 1.96 µg/mL (≈ 6.53 µM) | 0.1 to 12.5 µg/mL (≈ 0.333 to 41.6 µM) | 0% | 6.46 µg/mL (≈ 21.5 µM) | 12.5% | 5.6 µg/mL (≈ 18.6 µM) | 2 µg/mL (≈ 6.66 µM) | 0.2 µg/mL (≈ 0.666 µM) | 0.2 µg/mL (≈ 0.666 µM) | 8.4 µg/mL (≈ 28 µM) | 0.8 to 100 µg/mL (≈ 2.66 to 333 µM) | – | – | R% (resistant strains) (Enterobacteriaceae): 0%; range (MIC) (Proteus spp; [2]): <0.1 to 100 µg/mL; activity against Proteus spp (in words) (Proteus spp; from comparative examination of R% and nX data): highly active; activity against Pseudomonas aeruginosa (in words) (Pseudomonas aeruginosa; from comparative examination of R% and nX data, not so active as enoxacin): very active; MIC (Escherichia coli; read-out: range (MIC)): 0.2 to 12.5 µg/mL (≈ 0.666 to 41.6 µM) |
| CCn1cc(C(=O)O)c(=O)c2cc(F)c(N3CCCC3)cc21 [Acid (9), 1-Ethyl-6-fluoro-1,4-dihydro-4-oxo-7-(pyrrolidin-1-yl) quinoline-3-carboxylic acid] | 0% | 2.78 µg/mL (≈ 9.14 µM) | 0.2 to 6.25 µg/mL (≈ 0.657 to 20.5 µM) | 12.7 µg/mL (≈ 41.6 µM) | 3.12 to 25 µg/mL (≈ 10.3 to 82.2 µM) | 3.98 µg/mL (≈ 13.1 µM) | 0.8 to 6.25 µg/mL (≈ 2.63 to 20.5 µM) | 5.95 µg/mL (≈ 19.6 µM) | 0.4 to 25 µg/mL (≈ 1.31 to 82.2 µM) | 7% | 4.76 µg/mL (≈ 15.6 µM) | 12.5% | 9.87 µg/mL (≈ 32.4 µM) | 3.83 µg/mL (≈ 12.6 µM) | 2.2 µg/mL (≈ 7.23 µM) | 0.4 to 3.12 µg/mL (≈ 1.31 to 10.3 µM) | 6.2 µg/mL (≈ 20.4 µM) | 3.12 to 25 µg/mL (≈ 10.3 to 82.2 µM) | 10% | – | R% (resistant strains) (Enterobacteriaceae): 0% |
| CCn1cc(C(=O)O)c(=O)c2ccc(C)nc21 [Nalidixic acid, nalidixic acid] | – | 5.2 µg/mL (≈ 22.4 µM) | – | 12.9 µg/mL (≈ 55.5 µM) | – | 25.6 µg/mL (≈ 110 µM) | – | 100 µg/mL (≈ 431 µM) | – | 33% | 6.58 µg/mL (≈ 28.3 µM) | 50% | 5.46 µg/mL (≈ 23.5 µM) | 12.4 µg/mL (≈ 53.4 µM) | – | > 100 µg/mL | 3.12 µg/mL (≈ 13.4 µM) | – | 25% | 18% | R% = percentage of resistant strains (Klebsiella pneumoniae): 22%; R% = percentage of resistant strains (Staphylococcus spp): 50%; R% = percentage of resistant strains (Staphylococcus pyogenes): 94%; R% = percentage of resistant strains (Streptococcus spp): 100%; R% = percentage of resistant strains (Streptococcus ovalis): 93% |
| CCn1cc(C(=O)O)c(=O)c2cc(F)c(N3CCNCC3)cc21 [Norfloxacin, norfloxacin] | – | 2.66 µg/mL (≈ 8.33 µM) | 0.2 to 12.5 µg/mL (≈ 0.626 to 39.1 µM) | 1.93 µg/mL (≈ 6.04 µM) | 0.2 to 6.25 µg/mL (≈ 0.626 to 19.6 µM) | 4.79 µg/mL (≈ 15 µM) | 0.2 to 25 µg/mL (≈ 0.626 to 78.3 µM) | 8.64 µg/mL (≈ 27.1 µM) | 0.4 to 25 µg/mL (≈ 1.25 to 78.3 µM) | 0% | 8.1 µg/mL (≈ 25.4 µM) | 0% | 1.42 µg/mL (≈ 4.45 µM) | 4.47 µg/mL (≈ 14 µM) | 3.6 µg/mL (≈ 11.3 µM) | 1.56 to 6.25 µg/mL (≈ 4.89 to 19.6 µM) | 17.2 µg/mL (≈ 53.9 µM) | 0.8 to 100 µg/mL (≈ 2.51 to 313 µM) | – | – | MIC (Proteus spp; Proteus spp, 42 strains, pH 7.2, reading 18 h after incubation at 37°C, read-out: range (MIC)): 0.2 to 100 µg/mL (≈ 0.626 to 313 µM); MIC (Pseudomonas aeruginosa; read-out: range (MIC)): 0.4 to 3.12 µg/mL (≈ 1.25 to 9.77 µM); MIC (Escherichia coli; read-out: range (MIC)): 0.2 to 25 µg/mL (≈ 0.626 to 78.3 µM) |
| CCn1cc(C(=O)O)c(=O)c2cnc(N3CCNCC3)nc21 [Pipemidic acid, pipemidic acid] | – | 17.6 µg/mL (≈ 58 µM) | – | 3.79 µg/mL (≈ 12.5 µM) | – | 39.1 µg/mL (≈ 129 µM) | – | 36.4 µg/mL (≈ 120 µM) | – | 26% | 10.8 µg/mL (≈ 35.6 µM) | 0% | 12.3 µg/mL (≈ 40.6 µM) | 4.12 µg/mL (≈ 13.6 µM) | 75 µg/mL (≈ 247 µM) | 25 to 100 µg/mL (≈ 82.4 to 330 µM) | 65.6 µg/mL (≈ 216 µM) | – | 30% | 9% | R% = percentage of resistant strains (Klebsiella pneumoniae): 22%; R% = percentage of resistant strains (Staphylococcus spp): 30%; R% = percentage of resistant strains (Staphylococcus pyogenes): 44%; MIC (Pseudomonas aeruginosa; read-out: range (MIC)): 1.56 to 25 µg/mL (≈ 5.14 to 82.4 µM); R% = percentage of resistant strains (Streptococcus ovalis): 66% |
| CCn1cc(C(=O)O)c(=O)c2cnc(N3CCCC3)nc21 [Piromidic acid, piromidic acid] | – | 60.9 µg/mL (≈ 211 µM) | – | – | – | 39.1 µg/mL (≈ 135 µM) | – | 11.2 µg/mL (≈ 38.8 µM) | – | 76% | 60 µg/mL (≈ 208 µM) | 50% | 38.7 µg/mL (≈ 134 µM) | 44.3 µg/mL (≈ 154 µM) | 10.4 µg/mL (≈ 36.1 µM) | 6.25 to 12.5 µg/mL (≈ 21.7 to 43.4 µM) | 100 µg/mL (≈ 347 µM) | – | 45% | 36% | R% = percentage of resistant strains (Klebsiella pneumoniae): 61%; R% = percentage of resistant strains (Staphylococcus spp): 60%; R% = percentage of resistant strains (Staphylococcus pyogenes): 69%; R% = percentage of resistant strains (Streptococcus ovalis): 87% |
| CCn1cc(C(=O)O)c(=O)c2cc(F)c(N3CCNCC3)nc21 [enoxacin] | 0% | – | – | – | – | – | – | – | – | – | – | – | – | – | – | – | – | – | – | – | – |
